Assay results from PMC10226132, “First-in-Class Selective Inhibitors of the Lysine Acetyltransferase KAT8” (Journal of Medicinal Chemistry, 2023).
Where two headings read alike, the source gives them in different places.

Columns and labels:
Assay type in all cases: biochemical
KAT8 = biological target: T1, KAT8 (Homo sapiens, UniProt Q9H7Z6); assay: Radioactive KAT8 inhibition assay
T1 construct: using the previously purified KAT8 (173–458, 5 nM); 6xHis tag with TEV protease cleavage site (N, cleaved yes); made in house; host or cells: E. coli BL21(DE3)
T1 sequence (Q9H7Z6 173-458): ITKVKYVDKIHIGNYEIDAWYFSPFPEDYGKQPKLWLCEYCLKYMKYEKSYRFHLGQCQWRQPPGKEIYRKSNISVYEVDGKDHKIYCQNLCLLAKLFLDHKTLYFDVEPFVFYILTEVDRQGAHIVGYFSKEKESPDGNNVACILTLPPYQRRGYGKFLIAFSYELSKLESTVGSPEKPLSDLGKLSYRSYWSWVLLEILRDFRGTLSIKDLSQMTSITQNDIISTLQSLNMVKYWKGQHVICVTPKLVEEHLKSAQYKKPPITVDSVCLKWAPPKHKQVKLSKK
Protocol: Purified KAT8 was incubated with the relevant inhibitor (1% DMSO final) in a 2-fold serial dilution starting at 200 μM for 20 min at rt. Then, [^3H]Ac-CoA and biotinylated peptide were added to a total assay volume of 50 μL and the reaction mixture was incubated at rt for 4 h. The reaction was stopped, and the mixture was transferred to a 96-well streptavidin scintillant coated FlashPlate (Perkin Elmer) and incubated for 60 min at rt. The FlashPlate was washed with 0.1% Tween-20, and the liquid scintillation counting (MicroBeta Microplate Counter, Perkin Elmer) was employed to measure the radioactive signal. Experiments were performed in biological triplicates. Signal reduction compared to control was plotted (as inhibition percentage) as a function of compound concentration and fitted by nonlinear regression (GraphPad Prism 8.0) finally yielding the IC50 values.

KAT3B = biological target: T2, KAT3B (Homo sapiens, UniProt Q09472); assay: HotSpot KAT assay, KAT3B
T2 construct: KAT3B (aa 1284–1672, 1 nM); purchased Reaction Biology Corporation
T2 sequence (Q09472 1284-1672): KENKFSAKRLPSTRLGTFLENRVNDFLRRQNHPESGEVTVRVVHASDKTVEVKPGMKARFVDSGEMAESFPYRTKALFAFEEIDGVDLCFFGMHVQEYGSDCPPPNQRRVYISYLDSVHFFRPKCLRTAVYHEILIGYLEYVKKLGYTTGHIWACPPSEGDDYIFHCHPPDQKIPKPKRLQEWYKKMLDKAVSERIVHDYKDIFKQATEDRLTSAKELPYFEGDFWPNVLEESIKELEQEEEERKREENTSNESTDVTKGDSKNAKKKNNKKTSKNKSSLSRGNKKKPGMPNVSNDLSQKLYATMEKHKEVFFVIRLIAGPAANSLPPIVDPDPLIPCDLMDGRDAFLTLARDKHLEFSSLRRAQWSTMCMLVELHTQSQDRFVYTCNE
Protocol: The effects of the compounds on other KATs were determined using the HotSpot KAT assay (Reaction Biology Corporation, Malvern, PA, USA) according to the supplier’s procedure. […] Histone peptide acetylation was assessed by liquid scintillation counting using a Tri-Carb 2800TR Liquid Scintillation Analyzer (Perkin Elmer). Experiments were performed in biological triplicates. Signal reduction compared to control was plotted (as inhibition percentage) as a function of compound concentration. In cases in which an IC50 was calculated, the values were fitted by nonlinear regression (GraphPad Prism 8.0).

KAT2B = biological target: T3, KAT2B (Homo sapiens, UniProt Q92831); assay: HotSpot KAT assay, KAT2B; settings: enzyme 25 nM; NI = no inhibition at 200 μM; mean ± SD of three independent experiments
T3 construct: KAT2B (aa 492–658, 25 nM); purchased Reaction Biology Corporation
Protocol: The effects of the compounds on other KATs were determined using the HotSpot KAT assay (Reaction Biology Corporation, Malvern, PA, USA) according to the supplier’s procedure. The recombinant catalytic domains of human KAT2A (aa 323–837, 15 nM), KAT2B (aa 492–658, 25 nM), KAT3B (aa 1284–1672, 1 nM), KAT6A (aa 488–778, 10 nM), KAT6B (aa 657–1069, 10 nM), and full length human KAT5 (25 nM) and KAT7 (25 nM) were used. Each enzyme was incubated with the relevant histone peptide [H3 peptide for KAT2A, KAT2B, KAT3B, KAT6A, and KAT7 (2.5–5 μM, depending on the KAT isoform); H2A peptide for KAT5 (1.25 μM); H4 peptide for KAT6B (2.5 μM)] as a substrate and radio-isotope-labeled [^3H]Acetyl-CoA (0.2–1.5 μM, depending on the KAT isoform) as an acetyl donor in the assay buffer [50 mM Tris–HCl (pH 8.0), 50 mM NaCl, 0.1 mM EDTA, 1 mM DTT, 0.1 mM PMSF, 1% DMSO] for 1 h at 30 °C in the presence or absence of various compounds (1% DMSO final) titrated in a 2-fold serial dilution starting at 200 μM. Histone peptide acetylation was assessed by liquid scintillation counting using a Tri-Carb 2800TR Liquid Scintillation Analyzer (Perkin Elmer). Experiments were performed in biological triplicates. Signal reduction compared to control was plotted (as inhibition percentage) as a function of compound concentration. In cases in which an IC50 was calculated, the values were fitted by nonlinear regression (GraphPad Prism 8.0).

[1] = read-out: IC50 KAT8 (5 nM), enzyme 5 nM, 2-fold serial dilution from 200 μM, NI = no inhibition at 200 μM, mean ± SD of three independent experiments
[2] = read-out: IC50 KAT3B (1 nM), enzyme 1 nM, NI = no inhibition at 200 μM, mean ± SD of three independent experiments

T3 sequence (Q92831 492-658): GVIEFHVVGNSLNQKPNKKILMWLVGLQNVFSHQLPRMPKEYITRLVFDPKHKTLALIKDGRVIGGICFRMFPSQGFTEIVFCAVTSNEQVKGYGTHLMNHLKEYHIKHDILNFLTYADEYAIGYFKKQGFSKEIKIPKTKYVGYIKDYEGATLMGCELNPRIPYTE

Compound	IC50 (KAT8; [1]) [µM]	IC50 (KAT3B; [2]) [µM]	IC50 (KAT2B) [µM]	IC50 (KAT8) [µM]	IC50 (KAT3B) [µM]
CC1=NN(c2ccc(C(=O)O)cc2)C(=O)/C1=C\c1cc(C(=O)c2ccccc2[N+](=O)[O-])c[nH]1 [Compound 2, (Z)-4-(3-Methyl-4-((4-(2-nitrobenzoyl)-1H-pyrrol-2-yl)methylene)-5-oxo-4,5-dihydro-1H-pyrazol-1-yl)benzoic Acid]	86.2 ± 10	9.1 ± 0.6	> 200		
CC1=NN(c2ccc(C(=O)O)cc2)C(=O)/C1=C\c1cc(C(=O)c2ccccc2C)c[nH]1 [Compound 13, (Z)-4-(3-Methyl-4-((4-(2-methylbenzoyl)-1H-pyrrol-2-yl)methylene)-5-oxo-4,5-dihydro-1H-pyrazol-1-yl)benzoic Acid]	95 ± 10.2	8.9 ± 0.6	> 200		
CC1=NN(c2ccc(C(=O)O)cc2)C(=O)/C1=C\c1cccn1-c1ccccc1 [Compound 29, (Z)-4-(3-Methyl-5-oxo-4-((1-phenyl-1H-pyrrol-2-yl)methylene)-4,5-dihydro-1H-pyrazol-1-yl)benzoic Acid]	18.6 ± 0.8	14.6 ± 0.6	> 200		
CC1=NN(c2ccc(C(=O)O)cc2)C(=O)/C1=C\c1cc(C(=O)c2ccccc2)c[nH]1 [Compound 1, (Z)-4-(4-((4-Benzoyl-1H-pyrrol-2-yl)methylene)-3-methyl-5-oxo-4,5-dihydro-1H-pyrazol-1-yl)benzoic Acid]	90.5 ± 11.3	13.6 ± 1	> 200		
CC1=NN(c2ccc(C(=O)O)cc2)C(=O)/C1=C\c1cc2ccccc2[nH]1 [Compound 26, (Z)-4-(4-((1H-Indol-2-yl)methylene)-3-methyl-5-oxo-4,5-dihydro-1H-pyrazol-1-yl)benzoic Acid]	20.1 ± 0.9	1.6 ± 0.08	> 200		
CC1=NN(c2ccc(C(=O)O)cc2)C(=O)/C1=C\c1ccn[nH]1 [Compound 24, (Z)-4-(4-((1H-Pyrazol-5-yl)methylene)-3-methyl-5-oxo-4,5-dihydro-1H-pyrazol-1-yl)benzoic Acid]	44.1 ± 3	> 200	> 200		
CC1=NN(c2cccc(C(=O)O)c2)C(=O)/C1=C\c1ccc[nH]1 [Compound 36, (Z)-3-(4-((1H-Pyrrol-2-yl)methylene)-3-methyl-5-oxo-4,5-dihydro-1H-pyrazol-1-yl)benzoic Acid]	19.3 ± 1.3	> 200	> 200		
CC1=NN(c2ccc(C(=O)O)cc2)C(=O)/C1=C\c1cc(C(=O)c2ccccc2Cl)c[nH]1 [Compound 5, (Z)-4-(4-((4-(2-Chlorobenzoyl)-1H-pyrrol-2-yl)methylene)-3-methyl-5-oxo-4,5-dihydro-1H-pyrazol-1-yl)benzoic Acid]	88.9 ± 12.1	5.3 ± 0.3	> 200		
CC1=NN(c2ccc(C(=O)O)cc2)C(=O)C1=Cc1ccco1 (mixture of isomers) [Compound 20, 4-(4-(Furan-2-ylmethylene)-3-methyl-5-oxo-4,5-dihydro-1H-pyrazol-1-yl)benzoic Acid]			> 200	16.8 ± 0.9	6.3 ± 0.4
CC1=NN(c2ccc(C(=O)O)cc2)C(=O)/C1=C\c1c[nH]c2ccccc12 [Compound 27, (Z)-4-(4-((1H-Indol-3-yl)methylene)-3-methyl-5-oxo-4,5-dihydro-1H-pyrazol-1-yl)benzoic Acid]	38.1 ± 2.9	4.6 ± 0.2	> 200		
CC1=NN(c2ccc(C(=O)O)cc2)C(=O)/C1=C\c1ccccc1 [Compound 22, (Z)-4-(4-Benzylidene-3-methyl-5-oxo-4,5-dihydro-1H-pyrazol-1-yl)benzoic Acid]	29.2 ± 1.7	> 200	> 200		
CC1=NN(c2ccc(C(=O)O)cc2)C(=O)/C1=C\c1cccs1 [Compound 21, (Z)-4-(3-Methyl-5-oxo-4-(thiophen-2-ylmethylene)-4,5-dihydro-1H-pyrazol-1-yl)benzoic Acid]	20.8 ± 1.2	26.5 ± 1.7	> 200		
Cc1nn(-c2ccc(C(=O)O)cc2)c(O)c1Cc1ccccc1 [Compound 32, 4-(4-Benzyl-5-hydroxy-3-methyl-1H-pyrazol-1-yl)benzoic Acid]	26.9 ± 2.3	> 200	> 200		
CC1=NN(c2ccc(C(=O)O)cc2)C(=O)/C1=C\c1cc[nH]c1 [Compound 23, (Z)-4-(4-((1H-Pyrrol-3-yl)methylene)-3-methyl-5-oxo-4,5-dihydro-1H-pyrazol-1-yl)benzoic Acid]	33 ± 2	> 200	> 200		
CC1=NN(c2ccc(C(N)=O)cc2)C(=O)/C1=C\c1ccc[nH]1 [Compound 37, (Z)-4-(4-((1H-Pyrrol-2-yl)methylene)-3-methyl-5-oxo-4,5-dihydro-1H-pyrazol-1-yl)benzamide]	33.2 ± 2.4	> 200	> 200		
CC1=NN(c2ccc(C(=O)O)cc2)C(=O)/C1=C\c1c[nH]cn1 [Compound 25, (Z)-4-(4-((1H-Imidazol-4-yl)methylene)-3-methyl-5-oxo-4,5-dihydro-1H-pyrazol-1-yl)benzoic Acid]	31.8 ± 2.1	29.2 ± 1.7	> 200		
COc1ccccc1C(=O)c1c[nH]c(/C=C2\C(=O)N(c3ccc(C(=O)O)cc3)N=C2C)c1 [Compound 10, (Z)-4-(4-((4-(2-Methoxybenzoyl)-1H-pyrrol-2-yl)methylene)-3-methyl-5-oxo-4,5-dihydro-1H-pyrazol-1-yl)benzoic Acid]				> 150	
CC1=NN(c2ccc(C(=O)O)cc2)C(=O)/C1=C\c1cc(C(=O)c2cccc([N+](=O)[O-])c2)c[nH]1 [Compound 3, (Z)-4-(3-Methyl-4-((4-(3-nitrobenzoyl)-1H-pyrrol-2-yl)methylene)-5-oxo-4,5-dihydro-1H-pyrazol-1-yl)benzoic Acid]	> 150				
COc1cccc(C(=O)c2c[nH]c(/C=C3\C(=O)N(c4ccc(C(=O)O)cc4)N=C3C)c2)c1 [Compound 11, (Z)-4-(4-((4-(3-Methoxybenzoyl)-1H-pyrrol-2-yl)methylene)-3-methyl-5-oxo-4,5-dihydro-1H-pyrazol-1-yl)benzoic Acid]	> 200				
CC(C)C1=NN(c2ccc(C(=O)O)cc2)C(=O)/C1=C\c1cc(C(=O)c2ccccc2[N+](=O)[O-])c[nH]1 [Compound 15, (Z)-4-(3-Isopropyl-4-((4-(2-nitrobenzoyl)-1H-pyrrol-2-yl)methylene)-5-oxo-4,5-dihydro-1H-pyrazol-1-yl)benzoic Acid]			> 200	> 150	
CC1=NN(c2ccc(C(=O)O)cc2)C(=O)C1 [Compound 18]	> 200				
